Experimental data: patent US9944602B2, “Piperidinone herbicides” (E. I. DU PONT DE NEMOURS AND COMPANY, priority 2014, dated 2018)

Assays:
Assay type in all cases: in vivo
[1] = tested on: barnyardgrass (Echinochloa crus-galli); assay: Test A preemergence barnyardgrass; conditions: 0 to 100 scale; for Barnyardgrass plant response rating: 125 g ai/ha, 0 no effect, 100 complete control; for Plant response rating, Barnyardgrass: 500 g ai/ha, 0 is no effect, 100 is complete control
In short: (§1)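 Scores reflect visual comparison with untreated controls after ~10 d in the greenhouse (0 none, 100 complete control). Treatment was a surfactant-containing non-phytotoxic solvent formulation, sprayed onto soil after seeding or onto seedlings at one to two leaves, 2–10 cm tall.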

[2] = tested on: crabgrass, large (large crabgrass, Digitaria sanguinalis); assay: Test A preemergence crabgrass, large; conditions: 0 to 100 scale; for Crabgrass, Large plant response rating: 125 g ai/ha, 0 no effect, 100 complete control; for Plant response rating, Crabgrass, Large: 500 g ai/ha, 0 is no effect, 100 is complete control
Text: (§2) Seeds of plant species selected from barnyardgrass (Echinochloa crus-galli), kochia (Kochia scoparia), ragweed (common ragweed, Ambrosia elatior), ryegrass, Italian (Italian ryegrass, Lolium multiflorum), crabgrass, large (large crabgrass, Digitaria sanguinalis), foxtail, giant (giant foxtail, Setaria faberii), morningglory (Ipomoea spp.), pigweed (Amaranthus retroflexus), velvetleaf (Abutilon theophrasti), wheat (Triticum aestivum), and corn (Zea mays) were planted into a blend of loam soil and sand and treated preemergence with a directed soil spray using test chemicals formulated in a non-phytotoxic solvent mixture which included a surfactant.
(§3) At the same time, plants selected from these crop and weed species and also blackgrass (Alopecurus myosuroides), and galium (catchweed bedstraw, Galium aparine) were planted in pots containing the same blend of loam soil and sand and treated with postemergence applications of test chemicals formulated in the same manner. Plants ranged in height from 2 to 10 cm and were in the one- to two-leaf stage for the postemergence treatment. Treated plants and untreated controls were maintained in a greenhouse for approximately 10 d, after which time all treated plants were compared to untreated controls and visually evaluated for injury. Plant response ratings, summarized in Table A, are based on a 0 to 100 scale where 0 is no effect and 100 is complete control. A dash (-) response means no test result.

[3] = tested on: foxtail, giant (giant foxtail, Setaria faberii); assay: Test A preemergence foxtail, giant; conditions: 0 to 100 scale, 0 no effect, 100 complete control
In short: as §1

[4] = tested on: morningglory (Ipomoea spp.); assay: Test A preemergence morningglory; conditions: 0 to 100 scale, 0 no effect, 100 complete control
Text: as §2, §3

[5] = tested on: pigweed (Amaranthus retroflexus); assay: Test A preemergence pigweed; conditions: 0 to 100 scale, 0 no effect, 100 complete control
In short: as §1

[6] = tested on: velvetleaf (Abutilon theophrasti); assay: Test A preemergence velvetleaf; conditions: 0 to 100 scale, 0 no effect, 100 complete control
Text: as §2, §3

[7] = tested on: wheat (Triticum aestivum); assay: Test A preemergence wheat; conditions: 0 to 100 scale, 0 no effect, 100 complete control
Text: as §2, §3

[8] = tested on: corn (Zea mays); assay: Test A preemergence corn; conditions: 0 to 100 scale; for Corn plant response rating: 125 g ai/ha, 0 no effect, 100 complete control; for Plant response rating, Corn: 500 g ai/ha, 0 is no effect, 100 is complete control
Text: as §2, §3

[9] = tested on: barnyardgrass (Echinochloa crus-galli); assay: Test A postemergence barnyardgrass; conditions: 0 to 100 scale, 0 is no effect, 100 is complete control
In short: as §1

[10] = tested on: crabgrass, large (large crabgrass, Digitaria sanguinalis); assay: Test A postemergence crabgrass, large; conditions: 0 to 100 scale, 0 is no effect, 100 is complete control
Text: as §2, §3

[11] = tested on: foxtail, giant (giant foxtail, Setaria faberii); assay: Test A postemergence foxtail, giant; conditions: 0 to 100 scale, 0 is no effect, 100 is complete control
In short: as §1

[12] = tested on: morningglory (Ipomoea spp.); assay: Test A postemergence morningglory; conditions: 0 to 100 scale, 0 is no effect, 100 is complete control
Text: as §2, §3

[13] = tested on: pigweed (Amaranthus retroflexus); assay: Test A postemergence pigweed; conditions: 0 to 100 scale, 0 is no effect, 100 is complete control
In short: as §1

[14] = tested on: velvetleaf (Abutilon theophrasti); assay: Test A postemergence velvetleaf; conditions: 0 to 100 scale, 0 is no effect, 100 is complete control
Text: as §2, §3

[15] = tested on: wheat (Triticum aestivum); assay: Test A postemergence wheat; conditions: 0 to 100 scale, 0 is no effect, 100 is complete control
In short: as §1

[16] = tested on: corn (Zea mays); assay: Test A postemergence corn; conditions: 0 to 100 scale, 0 is no effect, 100 is complete control
In short: as §1

[17] = tested on: rice (Oryza sativa); assay: Test B flooded paddy test rice; conditions: Table B, Flood, 250 g ai/ha, scale 0 to 100
In short: (§4)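 Once seedlings reached two leaves, pots were flooded 3 cm deep and treated via the paddy water, which remained at that level. Evaluation was visual, against controls, after 13 to 15 d under greenhouse conditions.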

[18] = tested on: sedge, umbrella (small-flower umbrella sedge, Cyperus difformis); assay: Test B flooded paddy test sedge, umbrella; conditions: Table B, Flood, 250 g ai/ha, scale 0 to 100
In short: as §4

[19] = tested on: ducksalad (Heteranthera limosa); assay: Test B flooded paddy test ducksalad; conditions: Table B, Flood, 250 g ai/ha, scale 0 to 100
In short: as §4

[20] = tested on: barnyardgrass (Echinochloa crus-galli); assay: Test B flooded paddy test barnyardgrass; conditions: Table B, Flood, 250 g ai/ha, scale 0 to 100
In short: as §4

| SMILES | Barnyardgrass plant response rating [1] | Plant response rating, Barnyardgrass [1] | Crabgrass, Large plant response rating [2] | Plant response rating, Crabgrass, Large [2] | Foxtail, Giant plant response rating ([3]; 125 g ai/ha) | Foxtail, Giant plant response rating ([3]; 500 g ai/ha) | Morningglory plant response rating ([4]; 125 g ai/ha) | Morningglory plant response rating ([4]; 500 g ai/ha) | Pigweed plant response rating ([5]; 125 g ai/ha) | Pigweed plant response rating ([5]; 500 g ai/ha) | Velvetleaf plant response rating ([6]; 125 g ai/ha) | Velvetleaf plant response rating ([6]; 500 g ai/ha) | Wheat plant response rating ([7]; 125 g ai/ha) | Wheat plant response rating ([7]; 500 g ai/ha) | Corn plant response rating [8] | Plant response rating, Corn [8] | Plant response rating, Barnyardgrass ([9]; 125 g ai/ha) | Plant response rating, Barnyardgrass ([9]; 500 g ai/ha) | Plant response rating, Crabgrass, Large ([10]; 125 g ai/ha) | Plant response rating, Crabgrass, Large ([10]; 500 g ai/ha) | other results |
| --- | --- | --- | --- | --- | --- | --- | --- | --- | --- | --- | --- | --- | --- | --- | --- | --- | --- | --- | --- | --- | --- |
| O=C1NCCC(c2ccc(F)c(F)c2)C1C(=O)Nc1ccccc1F (racemic) [Compound 1] | 0 | 70 | 80 | 90 | 30 | 90 | 0 | 0 | 0 | 0 | 0 | 0 | 0 | 0 | 0 | 0 | 0 | 50 | 30 | 70 | Plant response rating, Foxtail, Giant ([11]; 125 g ai/ha): 0; Plant response rating, Foxtail, Giant ([11]; 500 g ai/ha): 0; Plant response rating, Morningglory ([12]; 125 g ai/ha): 0; Plant response rating, Morningglory ([12]; 500 g ai/ha): 0; Plant response rating, Pigweed ([13]; 125 g ai/ha): 0; Plant response rating, Pigweed ([13]; 500 g ai/ha): 0; Plant response rating, Velvetleaf ([14]; 125 g ai/ha): 0; Plant response rating, Velvetleaf ([14]; 500 g ai/ha): 0; Plant response rating, Wheat ([15]; 125 g ai/ha): 0; Plant response rating, Wheat ([15]; 500 g ai/ha): 0; Plant response rating, Corn ([16]; 125 g ai/ha): 0; Plant response rating, Corn ([16]; 500 g ai/ha): 0; Plant response rating [17]: 0; Plant response rating [18]: 0; Plant response rating [19]: 0; Plant response rating [20]: 0 |
| O=C1NCCC(c2ccc(F)cc2)C1C(=O)Nc1ccccc1C(F)(F)F (racemic) [Compound 4] | 0 | 50 | 90 | 90 | 10 | 70 | 0 | 0 | 0 | 0 | 0 | 0 | 0 | 0 | 0 | 0 | 0 | 20 | 40 | 70 | Plant response rating, Foxtail, Giant ([11]; 125 g ai/ha): 0; Plant response rating, Foxtail, Giant ([11]; 500 g ai/ha): 0; Plant response rating, Morningglory ([12]; 125 g ai/ha): 0; Plant response rating, Morningglory ([12]; 500 g ai/ha): 0; Plant response rating, Pigweed ([13]; 125 g ai/ha): 0; Plant response rating, Pigweed ([13]; 500 g ai/ha): 0; Plant response rating, Velvetleaf ([14]; 125 g ai/ha): 0; Plant response rating, Velvetleaf ([14]; 500 g ai/ha): 0; Plant response rating, Wheat ([15]; 125 g ai/ha): 0; Plant response rating, Wheat ([15]; 500 g ai/ha): 0; Plant response rating, Corn ([16]; 125 g ai/ha): 0; Plant response rating, Corn ([16]; 500 g ai/ha): 0; Plant response rating [17]: 0; Plant response rating [18]: 0; Plant response rating [19]: 0; Plant response rating [20]: 0 |
